Key:
Assay in all cases: KINOMEscan competition binding
CSNK1G1 = CSNK1G1 (Homo sapiens, UniProt Q9HCP0); conditions: read-out: %Inh CSNK1G1
GRK2 = molecular target: T1, GRK2 (Homo sapiens, UniProt P25098); conditions: read-out: %Inh GRK2
T1 sequence (P25098 1-689): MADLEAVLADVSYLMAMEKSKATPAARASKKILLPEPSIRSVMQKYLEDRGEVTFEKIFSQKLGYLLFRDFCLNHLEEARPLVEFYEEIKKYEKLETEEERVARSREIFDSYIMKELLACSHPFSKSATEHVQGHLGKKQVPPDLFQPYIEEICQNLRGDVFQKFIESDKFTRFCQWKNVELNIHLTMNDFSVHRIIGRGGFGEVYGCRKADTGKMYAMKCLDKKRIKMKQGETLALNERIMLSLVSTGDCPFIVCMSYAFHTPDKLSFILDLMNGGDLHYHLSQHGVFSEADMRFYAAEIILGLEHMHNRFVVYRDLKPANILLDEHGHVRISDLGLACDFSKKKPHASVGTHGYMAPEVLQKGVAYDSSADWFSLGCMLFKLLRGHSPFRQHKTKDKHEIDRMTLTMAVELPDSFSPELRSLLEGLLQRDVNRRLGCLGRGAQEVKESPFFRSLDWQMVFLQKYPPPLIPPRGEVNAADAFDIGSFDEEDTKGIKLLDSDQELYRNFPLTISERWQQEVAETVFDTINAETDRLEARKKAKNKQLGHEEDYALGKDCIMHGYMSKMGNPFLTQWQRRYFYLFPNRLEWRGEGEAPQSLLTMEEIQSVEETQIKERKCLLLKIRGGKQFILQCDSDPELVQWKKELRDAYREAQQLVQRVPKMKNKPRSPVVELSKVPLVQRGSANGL

LATS1 = molecular target: T2, LATS1 (Homo sapiens, UniProt O95835); conditions: read-out: %Inh LATS1
T2 sequence (O95835 1-1130): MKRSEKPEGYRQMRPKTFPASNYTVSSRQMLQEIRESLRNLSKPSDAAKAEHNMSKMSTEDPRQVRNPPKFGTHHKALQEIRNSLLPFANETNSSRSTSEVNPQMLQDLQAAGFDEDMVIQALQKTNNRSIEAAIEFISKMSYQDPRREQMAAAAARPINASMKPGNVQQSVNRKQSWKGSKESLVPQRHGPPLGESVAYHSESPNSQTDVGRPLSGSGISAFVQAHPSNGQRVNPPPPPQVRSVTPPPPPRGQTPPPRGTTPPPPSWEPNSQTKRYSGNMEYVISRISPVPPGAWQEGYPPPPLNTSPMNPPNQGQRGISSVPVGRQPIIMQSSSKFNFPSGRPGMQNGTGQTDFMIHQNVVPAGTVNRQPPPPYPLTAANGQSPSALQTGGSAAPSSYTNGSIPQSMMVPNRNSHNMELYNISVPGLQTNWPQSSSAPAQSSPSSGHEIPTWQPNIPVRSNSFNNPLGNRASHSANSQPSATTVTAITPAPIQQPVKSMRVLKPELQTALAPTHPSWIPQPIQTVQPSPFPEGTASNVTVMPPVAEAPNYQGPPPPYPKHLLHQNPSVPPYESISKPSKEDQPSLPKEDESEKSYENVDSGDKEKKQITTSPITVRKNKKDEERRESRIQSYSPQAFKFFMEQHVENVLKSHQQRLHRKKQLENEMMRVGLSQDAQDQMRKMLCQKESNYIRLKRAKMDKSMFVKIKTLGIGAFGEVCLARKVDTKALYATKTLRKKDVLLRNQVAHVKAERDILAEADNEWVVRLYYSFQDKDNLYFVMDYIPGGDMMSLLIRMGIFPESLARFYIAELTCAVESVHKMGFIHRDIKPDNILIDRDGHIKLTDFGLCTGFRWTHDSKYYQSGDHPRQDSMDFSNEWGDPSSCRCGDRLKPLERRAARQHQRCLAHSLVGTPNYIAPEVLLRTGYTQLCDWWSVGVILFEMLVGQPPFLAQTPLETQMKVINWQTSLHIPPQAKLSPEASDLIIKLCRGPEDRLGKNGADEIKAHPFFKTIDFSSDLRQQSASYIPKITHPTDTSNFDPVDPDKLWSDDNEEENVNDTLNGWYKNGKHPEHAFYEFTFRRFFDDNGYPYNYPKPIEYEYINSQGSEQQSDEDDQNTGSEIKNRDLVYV

BMPR1B = BMPR1B (Homo sapiens, UniProt O00238); conditions: read-out: %Inh BMPR1B
Sequence of BMPR1B (O00238 14-502): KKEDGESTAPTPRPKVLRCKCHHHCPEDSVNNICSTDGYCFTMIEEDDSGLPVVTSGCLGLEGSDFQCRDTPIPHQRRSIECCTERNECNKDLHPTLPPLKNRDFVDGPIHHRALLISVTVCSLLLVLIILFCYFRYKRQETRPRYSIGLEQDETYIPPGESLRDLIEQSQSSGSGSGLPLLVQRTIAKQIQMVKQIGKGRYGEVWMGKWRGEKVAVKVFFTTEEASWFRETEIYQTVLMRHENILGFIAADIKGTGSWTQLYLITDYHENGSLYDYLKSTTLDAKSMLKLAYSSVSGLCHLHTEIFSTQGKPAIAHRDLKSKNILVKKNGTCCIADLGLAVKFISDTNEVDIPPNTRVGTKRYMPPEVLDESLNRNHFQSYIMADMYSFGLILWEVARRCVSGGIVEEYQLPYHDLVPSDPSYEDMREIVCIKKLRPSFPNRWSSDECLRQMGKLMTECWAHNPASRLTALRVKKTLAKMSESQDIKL

BRSK1 = molecular target: T3, BRSK1 (Homo sapiens, UniProt Q8TDC3); conditions: read-out: %Inh BRSK1
T3 sequence (Q8TDC3 1-778): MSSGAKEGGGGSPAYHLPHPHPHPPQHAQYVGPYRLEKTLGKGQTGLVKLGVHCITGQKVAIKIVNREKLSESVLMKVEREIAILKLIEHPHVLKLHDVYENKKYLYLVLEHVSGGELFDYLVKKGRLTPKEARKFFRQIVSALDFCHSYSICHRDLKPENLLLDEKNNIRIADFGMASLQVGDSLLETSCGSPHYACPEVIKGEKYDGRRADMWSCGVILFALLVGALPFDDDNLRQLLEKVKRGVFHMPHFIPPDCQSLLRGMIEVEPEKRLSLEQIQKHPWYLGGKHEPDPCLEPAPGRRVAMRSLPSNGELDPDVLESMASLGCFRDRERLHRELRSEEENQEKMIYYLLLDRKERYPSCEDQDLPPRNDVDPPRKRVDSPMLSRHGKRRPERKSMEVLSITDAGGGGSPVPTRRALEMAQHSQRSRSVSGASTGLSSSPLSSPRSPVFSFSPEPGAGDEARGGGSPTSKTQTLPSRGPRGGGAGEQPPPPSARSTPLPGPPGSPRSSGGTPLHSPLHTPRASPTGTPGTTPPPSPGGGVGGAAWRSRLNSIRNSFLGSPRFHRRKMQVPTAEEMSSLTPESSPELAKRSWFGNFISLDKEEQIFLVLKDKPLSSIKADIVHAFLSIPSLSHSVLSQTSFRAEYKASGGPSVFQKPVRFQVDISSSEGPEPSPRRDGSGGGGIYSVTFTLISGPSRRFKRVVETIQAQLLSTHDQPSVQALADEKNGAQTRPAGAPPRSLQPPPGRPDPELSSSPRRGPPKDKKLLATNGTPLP

FGFR4 = FGFR4 (Homo sapiens, UniProt P22455); conditions: read-out: %Inh FGFR4
Sequence of FGFR4 (P22455 22-802): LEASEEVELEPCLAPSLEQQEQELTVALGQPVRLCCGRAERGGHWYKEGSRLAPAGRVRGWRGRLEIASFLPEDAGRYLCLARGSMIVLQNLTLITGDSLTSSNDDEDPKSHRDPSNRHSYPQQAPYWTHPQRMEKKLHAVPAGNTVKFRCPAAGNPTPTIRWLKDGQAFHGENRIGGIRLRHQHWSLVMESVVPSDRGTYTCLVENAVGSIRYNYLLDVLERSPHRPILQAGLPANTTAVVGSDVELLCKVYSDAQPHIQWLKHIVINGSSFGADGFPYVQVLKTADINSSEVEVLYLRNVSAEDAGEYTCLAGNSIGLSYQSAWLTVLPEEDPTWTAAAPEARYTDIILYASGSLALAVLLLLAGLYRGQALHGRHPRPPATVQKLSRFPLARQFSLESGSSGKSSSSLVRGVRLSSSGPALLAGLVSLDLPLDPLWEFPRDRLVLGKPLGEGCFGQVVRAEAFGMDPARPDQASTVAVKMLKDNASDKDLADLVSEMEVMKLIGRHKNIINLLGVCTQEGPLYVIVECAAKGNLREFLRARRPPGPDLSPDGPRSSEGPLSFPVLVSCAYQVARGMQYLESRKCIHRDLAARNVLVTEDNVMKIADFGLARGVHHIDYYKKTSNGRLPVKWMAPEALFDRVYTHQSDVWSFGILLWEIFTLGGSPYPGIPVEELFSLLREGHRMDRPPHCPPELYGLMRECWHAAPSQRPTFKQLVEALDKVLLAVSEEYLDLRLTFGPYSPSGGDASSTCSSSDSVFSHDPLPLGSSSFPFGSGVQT

AURKB = AURKB (Homo sapiens, UniProt Q96GD4); conditions: read-out: %Inh AURKB
Sequence of AURKB (Q96GD4 whole entry): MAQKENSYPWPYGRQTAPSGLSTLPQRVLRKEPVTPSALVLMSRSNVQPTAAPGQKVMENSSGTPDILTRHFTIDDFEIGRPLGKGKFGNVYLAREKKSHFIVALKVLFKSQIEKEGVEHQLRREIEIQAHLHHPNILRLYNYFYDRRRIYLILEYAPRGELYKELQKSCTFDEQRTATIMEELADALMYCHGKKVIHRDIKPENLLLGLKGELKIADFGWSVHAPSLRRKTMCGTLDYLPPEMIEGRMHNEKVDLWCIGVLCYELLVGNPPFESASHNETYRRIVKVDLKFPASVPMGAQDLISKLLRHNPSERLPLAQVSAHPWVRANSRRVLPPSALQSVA

Sequence of CSNK1G1 (Q9HCP0 whole entry): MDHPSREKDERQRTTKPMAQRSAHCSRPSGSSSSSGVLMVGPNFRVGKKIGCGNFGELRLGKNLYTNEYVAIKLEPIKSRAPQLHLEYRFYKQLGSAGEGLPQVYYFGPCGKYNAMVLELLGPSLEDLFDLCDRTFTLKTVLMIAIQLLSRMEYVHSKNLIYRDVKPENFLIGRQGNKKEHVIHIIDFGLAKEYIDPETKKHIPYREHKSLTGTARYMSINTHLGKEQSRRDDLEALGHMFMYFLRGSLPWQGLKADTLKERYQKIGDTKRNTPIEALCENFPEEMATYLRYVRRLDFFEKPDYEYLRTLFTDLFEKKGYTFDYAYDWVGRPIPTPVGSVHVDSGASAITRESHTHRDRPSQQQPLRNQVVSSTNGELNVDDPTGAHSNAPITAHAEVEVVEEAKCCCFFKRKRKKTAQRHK

COc1cccc(OC)c1C(=O)Nc1cccc(-c2nn3ccccc3c2-c2ccnc(Nc3cccc(F)c3)n2)c1 [UNC10225310A]
inhibition at 1 µM (CSNK1G1): 14% | inhibition at 1 µM (GRK2): 0% | inhibition at 1 µM (LATS1): 6% | inhibition at 1 µM (BMPR1B): 21% | inhibition at 1 µM (BRSK1): 0% | inhibition at 1 µM (FGFR4): 0% | inhibition at 1 µM (AURKB): 0%

Cc1ccc(NC(=O)Nc2cccc(C(F)(F)F)c2)cc1 [UNC10225187A]
inhibition at 1 µM (CSNK1G1): 0% | inhibition at 1 µM (GRK2): 0% | inhibition at 1 µM (LATS1): 0% | inhibition at 1 µM (BMPR1B): 0% | inhibition at 1 µM (BRSK1): 0% | inhibition at 1 µM (FGFR4): 0% | inhibition at 1 µM (AURKB): 0%

O=c1cc(N2CCOCC2)nc2n(Cc3cccc(Cl)c3Cl)c(C3CC3)nn12 [UNC10225469A]
inhibition at 1 µM (CSNK1G1): 0% | inhibition at 1 µM (GRK2): 0% | inhibition at 1 µM (LATS1): 0% | inhibition at 1 µM (BMPR1B): 0% | inhibition at 1 µM (BRSK1): 3% | inhibition at 1 µM (FGFR4): 0% | inhibition at 1 µM (AURKB): 4%

CS(=O)(=O)Cc1ccc(Nc2nccc(-c3c(-c4cccc(NC(=O)C5CCCCC5)c4)nn4ncccc34)n2)cc1 [UNC10225159A]
inhibition at 1 µM (CSNK1G1): 2% | inhibition at 1 µM (GRK2): 44% | inhibition at 1 µM (LATS1): 0% | inhibition at 1 µM (BMPR1B): 19% | inhibition at 1 µM (BRSK1): 0% | inhibition at 1 µM (FGFR4): 6% | inhibition at 1 µM (AURKB): 15%

Cn1cc(-c2cnc(N)c3c(-c4ccc5c(c4)CCN5C(=O)Cc4ccccc4)csc23)cn1 [UNC10225012A]
inhibition at 1 µM (CSNK1G1): 21% | inhibition at 1 µM (GRK2): 0% | inhibition at 1 µM (LATS1): 1% | inhibition at 1 µM (BMPR1B): 6% | inhibition at 1 µM (BRSK1): 0% | inhibition at 1 µM (FGFR4): 0% | inhibition at 1 µM (AURKB): 97.8%
